Measurements as given in ChEMBL document CHEMBL4402606, “Design and Characterization of the First Selective and Potent Mechanism-Based Inhibitor of Cytochrome P450 4Z1” (J Med Chem, 2020).

Tests used:
[1] = biological target: T1, Cytochrome P450 4Z1 (Homo sapiens, UniProt Q86W10); experiment: Inhibition of CYP4Z1 (unknown origin) in human HepG2 cell membranes transduced with lentiviral vector using luciferin-benzyl ether as substrate preincubated with NADPH for 30 mins followed by substrate addition and measured after 10 mins by P450-glo luciferase based luminescence assay
T1 sequence (Q86W10 whole entry): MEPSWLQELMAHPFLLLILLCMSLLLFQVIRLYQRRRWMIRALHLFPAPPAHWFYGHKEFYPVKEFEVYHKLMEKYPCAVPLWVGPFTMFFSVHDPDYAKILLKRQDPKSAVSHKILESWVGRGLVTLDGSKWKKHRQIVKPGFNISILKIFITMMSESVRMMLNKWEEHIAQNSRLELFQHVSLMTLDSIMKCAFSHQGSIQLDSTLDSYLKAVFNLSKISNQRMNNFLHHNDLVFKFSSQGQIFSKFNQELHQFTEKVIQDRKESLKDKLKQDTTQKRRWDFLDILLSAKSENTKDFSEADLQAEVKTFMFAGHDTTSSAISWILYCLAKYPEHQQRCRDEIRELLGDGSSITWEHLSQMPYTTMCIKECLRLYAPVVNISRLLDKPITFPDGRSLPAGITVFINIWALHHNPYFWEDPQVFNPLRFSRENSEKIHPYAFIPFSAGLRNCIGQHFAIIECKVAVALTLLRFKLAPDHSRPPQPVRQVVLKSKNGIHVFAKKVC

[2] = biological target: T1, Cytochrome P450 4Z1; experiment: Inhibition of CYP4Z1 (unknown origin) in human HepG2 cell membranes transduced with lentiviral vector using luciferin-benzyl ether as substrate incubated for 5 mins followed by NADPH addition and measured after 20 mins by P450-glo luciferase based luminescence assay
[3] = tested on: T47D; experiment: Cytotoxicity against human T47D cells at 3 uM after 24 hrs by CellTiter-Glo luminescent cell viability assay; format: cell-based
[4] = tested on: HepG2; experiment: Cytotoxicity against human HepG2 cells at 3 uM after 24 hrs by CellTiter-Glo luminescent cell viability assay; format: cell-based; details: hepg2, 24 h
[5] = biological target: T2, Cytochrome P450 2C9 (Homo sapiens, UniProt P11712); experiment: Inhibition of CYP2C9 in human pooled liver microsomes using tolbutamide as substrate preincubated with NADPH for 30 mins followed by substrate addition and measured after 10 mins by UPLC-MS/MS analysis; format: ADME
[6] = biological target: T3, Cytochrome P450 2C19 (Homo sapiens, UniProt P33261); experiment: Inhibition of CYP2C19 in human pooled liver microsomes using (S)-mephenytoin as substrate after 10 mins by UPLC-MS/MS analysis; format: ADME
[7] = biological target: T4, Cytochrome P450 1A2 (Homo sapiens, UniProt P05177); experiment: Inhibition of CYP1A2 in human pooled liver microsomes using phenacetin as substrate preincubated with NADPH for 30 mins followed by substrate addition and measured after 10 mins by UPLC-MS/MS analysis; format: ADME
T4 sequence (P05177 whole entry): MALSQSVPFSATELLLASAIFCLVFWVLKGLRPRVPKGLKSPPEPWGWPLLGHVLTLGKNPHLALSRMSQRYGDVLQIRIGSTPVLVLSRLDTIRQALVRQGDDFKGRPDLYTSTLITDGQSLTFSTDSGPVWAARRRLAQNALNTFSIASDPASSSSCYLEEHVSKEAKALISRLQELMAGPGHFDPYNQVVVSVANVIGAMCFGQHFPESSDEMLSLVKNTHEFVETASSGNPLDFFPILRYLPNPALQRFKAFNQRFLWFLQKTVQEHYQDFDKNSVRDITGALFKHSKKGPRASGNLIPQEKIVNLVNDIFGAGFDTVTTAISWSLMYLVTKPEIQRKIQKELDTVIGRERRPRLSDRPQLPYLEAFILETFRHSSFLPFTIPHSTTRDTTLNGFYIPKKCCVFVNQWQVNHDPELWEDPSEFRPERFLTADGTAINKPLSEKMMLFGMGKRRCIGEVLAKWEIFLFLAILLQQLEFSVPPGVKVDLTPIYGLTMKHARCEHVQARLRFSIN

[8] = biological target: T3, Cytochrome P450 2C19; experiment: Inhibition of CYP2C19 in human pooled liver microsomes using (S)-mephenytoin as substrate preincubated with NADPH for 30 mins followed by substrate addition and measured after 10 mins by UPLC-MS/MS analysis; format: ADME
[9] = biological target: T5, CYP3A4/5 (Homo sapiens, UniProt P08684+P20815); experiment: Inhibition of CYP3A4/5 in human pooled liver microsomes using midazolam as substrate after 10 mins by UPLC-MS/MS analysis; format: ADME; details: probe midazolam
[10] = biological target: T5, CYP3A4/5; experiment: Inhibition of CYP3A4/5 in human pooled liver microsomes using midazolam as substrate preincubated with NADPH for 30 mins followed by substrate addition and measured after 10 mins by UPLC-MS/MS analysis; format: ADME; details: probe midazolam
[11] = biological target: T6, Cytochrome P450 2C8 (Homo sapiens, UniProt P10632); experiment: Inhibition of CYP2C8 in human pooled liver microsomes using amodiaquine as substrate preincubated with NADPH for 30 mins followed by substrate addition and measured after 10 mins by UPLC-MS/MS analysis; format: ADME
T6 sequence (P10632 whole entry): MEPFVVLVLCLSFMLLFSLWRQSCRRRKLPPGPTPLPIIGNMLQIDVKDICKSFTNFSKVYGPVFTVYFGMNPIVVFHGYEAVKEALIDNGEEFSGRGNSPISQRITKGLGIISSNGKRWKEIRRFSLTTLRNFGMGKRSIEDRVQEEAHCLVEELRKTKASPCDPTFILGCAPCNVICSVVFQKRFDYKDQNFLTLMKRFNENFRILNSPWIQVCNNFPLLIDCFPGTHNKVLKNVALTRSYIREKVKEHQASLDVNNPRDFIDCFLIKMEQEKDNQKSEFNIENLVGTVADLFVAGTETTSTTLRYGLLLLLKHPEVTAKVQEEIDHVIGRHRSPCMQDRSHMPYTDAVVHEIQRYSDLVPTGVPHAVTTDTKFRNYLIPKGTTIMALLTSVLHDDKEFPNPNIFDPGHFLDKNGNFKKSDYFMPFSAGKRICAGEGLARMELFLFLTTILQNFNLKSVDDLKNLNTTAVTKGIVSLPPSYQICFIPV

[12] = biological target: T6, Cytochrome P450 2C8; experiment: Inhibition of CYP2C8 in human pooled liver microsomes using amodiaquine as substrate after 10 mins by UPLC-MS/MS analysis; format: ADME
[13] = biological target: T4, Cytochrome P450 1A2; experiment: Inhibition of CYP1A2 in human pooled liver microsomes using phenacetin as substrate after 10 mins by UPLC-MS/MS analysis; format: ADME
[14] = biological target: T7, Cytochrome P450 2D6 (Homo sapiens, UniProt P10635); experiment: Inhibition of CYP2D6 in human pooled liver microsomes using dextromethorphan as substrate preincubated with NADPH for 30 mins followed by substrate addition and measured after 10 mins by UPLC-MS/MS analysis; format: ADME
[15] = biological target: T7, Cytochrome P450 2D6; experiment: Inhibition of CYP2D6 in human pooled liver microsomes using dextromethorphan as substrate after 10 mins by UPLC-MS/MS analysis; format: ADME
[16] = biological target: T2, Cytochrome P450 2C9; experiment: Inhibition of CYP2C9 in human pooled liver microsomes using tolbutamide as substrate after 10 mins by UPLC-MS/MS analysis; format: ADME

T3 sequence (P33261 whole entry): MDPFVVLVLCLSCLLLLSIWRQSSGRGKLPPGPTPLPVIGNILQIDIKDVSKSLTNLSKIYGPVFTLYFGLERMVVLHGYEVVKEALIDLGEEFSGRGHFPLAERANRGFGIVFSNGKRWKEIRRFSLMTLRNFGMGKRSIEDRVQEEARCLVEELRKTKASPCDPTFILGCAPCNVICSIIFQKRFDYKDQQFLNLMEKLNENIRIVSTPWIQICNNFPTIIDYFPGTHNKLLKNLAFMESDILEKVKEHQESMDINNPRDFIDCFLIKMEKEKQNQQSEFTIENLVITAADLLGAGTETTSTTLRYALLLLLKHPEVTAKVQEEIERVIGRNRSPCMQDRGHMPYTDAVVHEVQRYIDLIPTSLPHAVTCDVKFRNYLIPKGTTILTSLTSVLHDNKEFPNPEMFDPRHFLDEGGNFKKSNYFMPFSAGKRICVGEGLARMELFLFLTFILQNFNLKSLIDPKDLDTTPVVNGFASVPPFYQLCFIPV
T7 sequence (P10635 whole entry): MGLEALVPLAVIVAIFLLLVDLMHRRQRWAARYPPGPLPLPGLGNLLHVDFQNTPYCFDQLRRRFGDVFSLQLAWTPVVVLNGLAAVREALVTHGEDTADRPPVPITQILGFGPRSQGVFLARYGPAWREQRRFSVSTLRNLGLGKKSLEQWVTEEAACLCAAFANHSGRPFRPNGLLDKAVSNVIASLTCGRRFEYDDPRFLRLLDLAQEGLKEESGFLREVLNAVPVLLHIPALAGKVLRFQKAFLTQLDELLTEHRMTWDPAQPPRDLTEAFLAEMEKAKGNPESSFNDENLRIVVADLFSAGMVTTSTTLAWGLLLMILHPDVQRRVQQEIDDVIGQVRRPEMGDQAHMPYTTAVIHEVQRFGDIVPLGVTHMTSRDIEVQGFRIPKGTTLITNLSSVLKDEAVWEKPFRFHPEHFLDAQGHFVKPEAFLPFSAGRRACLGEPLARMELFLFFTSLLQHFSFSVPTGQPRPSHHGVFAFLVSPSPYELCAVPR
T2 sequence (P11712 whole entry): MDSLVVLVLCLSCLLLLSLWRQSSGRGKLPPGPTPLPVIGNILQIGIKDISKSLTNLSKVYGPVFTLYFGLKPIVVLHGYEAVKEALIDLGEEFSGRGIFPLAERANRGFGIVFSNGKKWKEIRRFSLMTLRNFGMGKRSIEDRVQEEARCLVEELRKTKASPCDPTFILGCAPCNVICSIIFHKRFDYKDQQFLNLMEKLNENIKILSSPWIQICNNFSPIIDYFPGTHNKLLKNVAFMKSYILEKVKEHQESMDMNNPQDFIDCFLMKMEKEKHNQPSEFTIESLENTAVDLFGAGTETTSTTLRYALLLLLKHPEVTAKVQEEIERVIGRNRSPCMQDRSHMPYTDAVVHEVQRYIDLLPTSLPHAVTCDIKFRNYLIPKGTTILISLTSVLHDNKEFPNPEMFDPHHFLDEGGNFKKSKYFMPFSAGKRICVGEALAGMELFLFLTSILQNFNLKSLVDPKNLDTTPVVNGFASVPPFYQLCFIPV

IC50 [5]	IC50 [6]	IC50 [7]	IC50 [8]	IC50 at 10 min [9]	IC50 at 10 min [10]	IC50 [11]	IC50 [12]	IC50 [13]	IC50 [14]	IC50 [15]	IC50 [16]	Compound	IC50 [1]	IC50 [2]	Activity [3]	Activity [4]
–	–	–	–	–	–	–	–	–	–	–	–	Nn1nnc2ccccc21	12 µM	154 µM	–	–
330 µM	759 µM	55 µM	246 µM	244 µM	128 µM	84 µM	306 µM	614 µM	299 µM	826 µM	343 µM	O=C(O)CCCCCCCNn1nnc2ccccc21	–	–	Non-Toxic	Non-Toxic
1940 µM	> 3000 µM	228 µM	1640 µM	1310 µM	766 µM	954 µM	2310 µM	2790 µM	1710 µM	2850 µM	> 3000 µM	O=C(O)CCCCCNn1nnc2ccccc21	–	–	–	–
